Experimental data taken from patent publication US4521422A, “Aryl and heteroaryl[7-(aryl and heteroaryl)pyrazolo[1,5-a]pyrimidin-3-yl]methanones” (American Cyanamid Company, priority 1984, dated 1985).

What was measured:
[1] = system: Ethanol Induced Narcosis in Rats; test: Effects on the duration of ethanol induced narcosis in rats; type: in vivo; conditions: Rattus norvegicus; lowest dose causing significant (p≤0.05) increase in duration of narcosis; oral, 60 min before 3.2 g/kg i.p. ethanol; read-out: MED
Method: The sedative-hypnotic properties of the novel compounds of the instant invention have been established by their effect on the duration of ethanol induced narcosis in rats as a measurement of sedation. Groups of at least 8 rats were administered graded oral doses of the test compounds or vehicle 60 minutes prior to intraperitoneal treatment with 3.2 g/kg ethanol. Rats were then observed continuously for 180 minutes for the incidence and duration of ethanol induced narcosis. […] The duration of narcosis was the total time the rat remained in a supine position. The MED [lowest dose necessary to cause a significant (p≤0.05, two-tailed Student's t test) increase in the duration of ethanol induced narcosis in rats] of representative compounds of this invention are shown in Table IV. Test compounds were dissolved or suspended in a 2% aqueous starch suspension containing 5% polyethyleneglycol 400 and a drop of Tween®80; ethanol (95%) was adjusted to final concentration (V:V) with 0.85% saline. All treatments were administered in a constant volume of 5 ml/kg.

[2] = system: Brain-Specific Receptors of Rats; test: Inhibition of the binding of 3H-benzodiazepine to brain-specific receptors of rats; parameters: species or system rat (Wistar); conditions: 3H-diazepam 1.5 nM or 3H-flunitrazepam 1.0 nM; rat cortex P2 fraction; test concentration not given
[3] = system: Nonconditioned Passive Avoidance in Rats; test: Nonconditioned passive avoidance (conflict) test in rats; type: in vivo, rat (Wistar); parameters: key: Active: considered active if the number of shocks received by the test group is significantly higher than the control group by the Mann-Witney U test; conditions: dose 25.0 mg/kg, oral or i.p.
Method: Another test which has been used to assess anti-anxiety effects is a nonconditioned passive avoidance procedure described by [J. R. Vogel, B. Beer and D. E. Clody, "A Simple and Reliable Conflict Procedure for Testing Anti-Anxiety Agents", Psychopharmacologia, 21, 1-7 (1971)]. A conflict situation is induced in rats by a modification of this method.
Groups of 6 naive, Wistar strain rats, weighing 200-240 g each were deprived of water for 48 hours and food for 24 hours. The test compounds were administered in single or graded, oral or intraperitoneal doses, suspended in a 2% starch vehicle containing 0.5% v/v polyethylene glycol and one drop of polysorbate 80. Control animals received the vehicle alone. At 30 to 60 minutes each rat was placed in an individual plexiglass chamber. Water was available ad libitum from a tap located in the rear of the chamber. A 0.7 milliampere DC shocking current was established between the stainless steel grid floor and the tap. After 20 licks of non-shocked drinking, a shock was delivered for 2 seconds and then further shocks were delivered on a ratio of one shock for 2 seconds for every 20 licks. This was continued for a total of 3 minutes. The number of shocks taken by each rat during the 3 minute interval was recorded and compared to a control group. […]

[4] = system: Clonic Seizures Caused by Pentylenetetrazole in Rats; test: Protection against clonic seizures caused by pentylenetetrazole in rats; type: in vivo; conditions: Rattus norvegicus; dose 25.0 mg/kg, oral or i.p.; pentylenetetrazole 23 mg/kg i.v. at 30 or 60 min; read-out: % of Rats Protected
Outline: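 Rats (at least 4 per group) given single or graded oral or intraperitoneal doses in starch/PEG/Polysorbate 80 vehicle. After 30 or 60 min, pentylenetetrazole 23 mg/kg i.v. was given, a dose expected to induce clonic seizures in 99% of unprotected rats. Protection from convulsions was scored.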

[5] = system: Ability of Rats to Remain on an Inclined Screen; test: Effect on ability of rats to remain on an inclined screen; type: in vivo; conditions: Rattus norvegicus, 65 min; dose necessary to cause 50% of animals to fall off; oral; 60° screen, 65 min after dosing
Method: The first test measures the effect of representative compounds on the ability of rats to remain on an inclined screen. Groups of at least 6 rats were treated orally with graded doses of test compounds or vehicle and placed on a wire mesh screen (inclined at an angle of 60° from a horizontal level) 65 minutes later. The number of rats falling off the screen within 30 minutes was recorded. The ED50 (dose necessary to cause 50% of the animals tested to fall off) was calculated according to the linear arc-sine transformation method of Finney, D. J. Statistical Methods in Biological Assay, 2nd Ed., Hafner, N. Y., 1964, pp. 454 ff. Compounds were dissolved or suspended in a 2% aqueous starch suspension containing 5% polyethylene glycol 400 and a drop of polysorbate 80, and administered in a constant volume of 5 ml/kg.

[6] = system: Locomotor Activity in Rats; test: Effects on locomotor activity in rats; type: in vivo; conditions: Rattus norvegicus, 1 h; dose causing 50% decrease in mean activity counts vs vehicle; oral, 60 min; read-out: MDD50
Method: Groups of 6 rats were treated orally with vehicle (5 ml/kg) or graded doses of the test compounds. Sixty minutes later, individual rats were placed in Actophotometers and locomotor activity was measured for 5 minutes after a brief (30 sec.) habituation period. Motor Activity Counts (number of crossings of the photo cells) were recorded for each rat, and mean activity counts were calculated for each treatment group. The dose causing a 50% decrease in mean activity counts compared with the vehicle group (MDD50) was calculated from a linear regression equation.

| Compound | minimal effective dose [1] [mg/kg] | % Inhibition [2] [%] | Result (nonconditioned passive avoidance) [3] | responders at 25 mg/kg [4] [%] | ED50 [5] [mg/kg] | ED50 [6] [mg/kg] |
| --- | --- | --- | --- | --- | --- | --- |
| O=C(c1ccco1)c1cnn2c(-c3cccc(C(F)(F)F)c3)ccnc12 [2-furanyl[7-[3-(trifluoromethyl)phenyl]pyrazolo[1,5-a]pyrimidin-3-yl]methanone] | 32 | 98 | Active | 100 | – | – |
| O=C(c1ccccc1Cl)c1cnn2c(-c3cccnc3)ccnc12 [(2-chlorophenyl)[7-(3-pyridinyl)pyrazolo[1,5-a]pyrimidin-3-yl]methanone] | 4 | 24 | Active | 100 | – | – |
| O=C(c1ccc(F)cc1)c1cnn2c(-c3ccncc3)ccnc12 [(4-Fluorophenyl)[7-(4-pyridinyl)pyrazolo[1,5-a]pyrimidin-3-yl]methanone] | 6 | – | Active | 100 | 98 | 48.9 |
| O=C(c1ccccc1)c1cnn2c(-c3cccnc3)ccnc12 [Phenyl[7-(3-pyridinyl)pyrazolo[1,5-a]pyrimidin-3-yl]methanone] | 16 | 45 | Active | 100 | 68.5 | 51.4 |
| O=C(c1ccccc1)c1cnn2c(-c3cccc(C(F)(F)F)c3)ccnc12 [phenyl[7-[3-(trifluoromethyl)phenyl]pyrazolo[1,5-a]pyrimidin-3-yl]methanone] | – | 93 | Active | 100 | 5.5 | 5.5 |
| O=C(c1ccccc1)c1cnn2c(-c3ccncc3)ccnc12 [phenyl[7-(4-pyridinyl)pyrazolo[1,5-a]pyrimidin-3-yl]methanone] | 8 | – | Active | 100 | 9.9 | 21.2 |
| O=C(c1ccco1)c1cnn2c(-c3cccnc3)ccnc12 [2-Furanyl[7-(3-pyridinyl)pyrazolo[1,5-a]pyrimidin-3-yl]methanone] | 32 | 72 | Active | 100 | 167 | 500 |
| O=C(c1ccccn1)c1cnn2c(-c3cccc(C(F)(F)F)c3)ccnc12 [2-pyridinyl[7-[3-(trifluoromethyl)phenyl]pyrazolo[1,5-a]pyrimidin-3-yl]methanone] | – | 93 | Active | 100 | 6.9 | 7 |
| Cc1ccc(C(=O)c2cnn3c(-c4cccnc4)ccnc23)cc1 [(4-Methylphenyl)[7-(3-pyridinyl)pyrazolo[1,5-a]pyrimidin-3-yl]methanone] | – | 56 | Active | 100 | 11.1 | 13.2 |
